{"source": "patent US10603349B2", "about": "“Method for preparing pharmaceutical compositions of rhizomes from Alpinia galanga or Alpinia conchigera having a high content of 1′S-1′-acetoxychavicol acetate (ACA)” (NERTHUS APS, priority 2013, dated 2020)", "origin": "cited, not measured here", "system": "whole-body insulin resistance", "conditions": "fructose-induced rat model of metabolic syndrome"}
{"smiles": "O=c1c(O)c(-c2ccccc2)oc2cc(O)cc(O)c12", "note": "[Galangin, galangin]", "values": [{"measurement": "Blood glucose and insulin levels", "result": "dose-dependently normalized"}]}
